Values joined by “and” are separate entries in the source; they are usually repeats but may differ in a detail not shown here. Identical values can stand only once.
What was measured:
[1] = Repeat dose oral capsule or intravenous infusion pharmacokinetics in blood; assay type: in vivo, Male Beagle Dogs; conditions: Beagle dogs, 2-h IV 4 mg/kg/day, Day 1, individual animals and Mean
Method: Pharmacokinetics Study in Male Beagle Dogs. Three oral formulations were tested.
In this example, the pharmacokinetics and biodistribution are studied in Male Beagle Dogs. The Dog is a relevant model since the elimination rate from the different organs, mainly the liver, are closer to that observed in man. Three oral formulations were tested and compared to the injectable formulation: […]
The test item dosing formulation was administered once daily as a 2-hour intravenous infusion via the saphenous and/or cephalic vein using an infusion pump, using a temporary peripheral vein catheter attached to a syringe, for 2 consecutive days. The dose volume was 4 mL/kg and the infusion rate was 2 mL/kg/hour for all animals. The actual volume administered to each animal was calculated and adjusted based on the most recent practical body weight of each animal. The catheter was flushed with 0.9% Sodium Chloride for Injection, USP (saline) in order to ensure that the whole intended dose was administered to the animals, after which the temporary catheter was removed and discarded.
The test item was administered twice daily (targeted time: 12 hours apart) by oral capsule administration for 3 consecutive days to fasted animals (at least 4 hours prior to dosing). Food was returned 2 hours post-dose.
The number of capsules to be administered to each animal was fixed to 2 capsules/animals/occasion. If needed, following dosing, the oral cavity was rinsed with an appropriate volume of reverse osmosis water to facilitate swallowing. The oral cavity was inspected following dosing to ensure that the capsules have been swallowed.

[2] = system: GalN/LPS fulminant liver injury; experiment: GalN/LPS fulminant liver injury model; assay type: in vivo; conditions: mice; for Serum ALT / Serum ALT levels reduced relative to PBS vehicle: 6.5 hours
Method: To evaluate the anti-inflammatory, anti-TNFα and hepato-protective properties of PENTAMIDINE, a Galactosamine/Liposaccharide (GalN/LPS) fulminant liver injury model was used.
Three independent experiments on mice untreated or pretreated with vehicle, compound PENTAMIDINE (isethionate salt) at doses of 25 and 40 mg/kg. PENTAMIDINE is dosed IP 30-minutes prior to the co-treatment with subtoxic doses of hepatotoxin GalN and immune stimulant LPS. Mice were sacrificed at 6.5 hours after GalN/LPS for analysis. The analysis of alanine transaminase (ALT) serum levels and histological observations allow the evaluation of the hepato-protective, anti-TNF-α, anti-inflammatory and/or anti-fibrotic activity.
To evaluate the anti-inflammatory, anti-TNFα and hepatoprotective properties of different pentamidine salt such as pentamidine bis-HCl (penta-HCL) and pentamidine tosylate (penta-Tos), a Galactosamine/Liposaccharide (GalN/LPS) fulminant liver injury model was used.
Pentamidine HCl and Tosylate were dosed IP 30-minutes prior to the co-treatment with subtoxic doses of hepatotoxin GalN and immune stimulant LPS. Mice were sacrificed at 6.5 hours after GalN/LPS for analysis. The analysis of alanine transaminase (ALT) serum levels and histological observations allow the evaluation of the hepato-protective, anti-TNF-α, anti-inflammatory and/or anti-fibrotic activity. Results

[3] = Oral bioavailability and biodistribution of pentamidine salts
Method: In this experiment, HCl, isethionate and tosylate salts of pentamidine were administered orally to mice and their PK and tissue accumulations were compared.
PK parameters for pentamidine salt following oral administration of 200 mg/kg in mice.
Biodistribution of Pentamidine Salts in mice, 24 hours after PO administration of 200 mg/kg.

NASH-like pathology = experiment: Diabetic and high-fat diet model (STAM mice, NASH-like pathology); assay type: in vivo, C57BL/6 mice; conditions: high dose group (25 mg/kg IP three times a week, 6-9 wks)
Method: In this experiment, NASH-like pathology is induced in C57BL/6 mice by a single subcutaneous injection of 200 ug streptozotocin 2 days after birth and feeding with high fat diet (HFD, 57 kcal % fat, cat#: HFD32, CLEA Japan, Japan) after 4 weeks of age (STAM mice). Vehicle or pentamidine treatment was administered three times a week from 6 to 9 weeks of age. Vehicle (0.9% NaCl) and PENTAMIDINE were administered by intraperitoneal route in a volume of 10 mL/kg.

[4] = system: GalN/LPS-induced liver injury; experiment: GalN/LPS fulminant liver injury survival study; assay type: in vivo; conditions: C57BL/6 mice; IP 30 minutes prior GalN/LPS; PENTAMIDINE 40 mpk, Decamidine 10 mpk
Method: In this experiment, the 8-hour survival rate for C57BL/6 mice is evaluated when treated or not with two different aromatic diamidines (pentamidine isethionate(C5) and decamidine isethionate (C10)). Both compounds were administered intraperitoneally at doses close to their MTD 30 minutes prior a GalN/LPS-induced liver injury.

[5] = system: chemokines interleukin (IL)-8, GRO alpha and MCP-1; conditions: human whole blood, cited from earlier work
in vivo [6] = conditions: female, Fox Chase SCID CB17, mouse, oral
in vivo [7] = conditions: male, Beagle, dog, liver, iv, 4 mg/kg/day
[8] = Repeat dose oral tablet or intravenous infusion, biodistribution and tissue elimination; conditions: Beagle dogs
[9] = male, Beagle, dog, iv, 4 mg/kg/day
[10] = IP 25 mg/kg 30 minutes prior to GalN/LPS
[11] = IP 40 mg/kg 30 minutes prior to GalN/LPS
[12] = mice, 24 hours after PO 200 mg/kg, listed as Penta-Ise, 200 mg/kg
[13] = mice, oral 200 mg/kg, blood, listed as Isethionate salt, 200 mg/kg

For N=C(N)c1ccc(OCCCCCOc2ccc(C(=N)N)cc2)cc1 [pentamidine, pentamidine bis(2-hydroxyethanesulfonate)], the “AUC % Extrap” value ([1]; 4 mg/kg/day) was 22.12% and 18.04% and 19.13% and 48.74% and 43.8% and 19.89%, the AUCINF ([1]; 4 mg/kg/day) was 24.54 µM·h and 35.82 µM·h and 9.09 µM·h and 20.95 µM·h and 35.1 µM·h and 17.89 µM·h and the AUClast ([1]; 4 mg/kg/day) was 19.11 µM·h and 29.35 µM·h and 7.35 µM·h and 10.74 µM·h and 19.73 µM·h and 14.33 µM·h. For the same molecule, the CL ([1]; 4 mg/kg/day) was 8 mL/min/kg and 5.5 mL/min/kg and 21.5 mL/min/kg and 9.33 mL/min/kg and 5.67 mL/min/kg and 11 mL/min/kg, the Cmax ([1]; 4 mg/kg/day) was 2200 nM and 2160 nM and 1740 nM and 1220 nM and the MRTlast ([1]; 4 mg/kg/day) was 45.29 h and 65.59 h and 6.36 h and 18.84 h and 30.73 h and 38.14 h. For the same molecule, the Tlast ([1]; 4 mg/kg/day) was 120 h and 168 h and 24 h and 48 h and 72 h and 96 h, the Tmax ([1]; 4 mg/kg/day) was 2 h and the Vz ([1]; 4 mg/kg/day) was 26.52 L/kg and 18.59 L/kg and 22.93 L/kg and 32.19 L/kg and 33.41 L/kg. The t1/2 ([1]; 4 mg/kg/day) was 35.23 h, the Cmax [1, 9] was 1430 nM and the half-life [1, 9] was 47 h. It also gave a Tmax ([1]; male, Beagle, dog, iv, 4 mg/kg/day, read-out: Tmax) of 1 h, a Vd ([1]; male, Beagle, dog, iv, 4 mg/kg/day, read-out: Vz) of 32.5 L/kg and a Cmax ([1]; male, dog) of 1040 nM. The “Numbers of TUNEL-positive cells per high power field in the livers” value ([2]; GalN/LPS, P<0.0002 as compared to PBS+GalN/LPS) was “significantly decreased”, the “Serum ALT” value [2, 10] was 402+/−105 and the “Serum ALT levels reduced relative to PBS vehicle” value [2, 10] was 93%. For the same molecule, the “Serum ALT” value [2, 11] was 177+/−44, the “Serum ALT levels reduced relative to PBS vehicle” value [2, 11] was 97% and the “Tissue Concentration Kidney” value [3, 12] was 5.0 µM. The “Tissue Concentration Liver” value [3, 12] was 5.6 µM, the “Tissue Concentration Lung” value [3, 12] was 2.7 µM and the “Tissue Concentration Pancreas” value [3, 12] was 1.3 µM. For the same molecule, the “F*” value ([3]; mice, oral 200 mg/kg, based on the iv AUC at 5 mg/kg of 19.08, listed as Isethionate salt) was 3.0, the AUCINF [3, 13] was 23.0 µM·h and the Cl/F [3, 13] was 255 mL/min/kg. It also gave a Cmax [3, 13] of 3060 nM, an MRT [3, 13] of 52.8 h and a Tmax [3, 13] of 3.33 h. For the same molecule, the t½ [3, 13] was 44.5 h, the AUC ([3]; mouse, in vivo, iv, 5 mg/kg) was 19.1 µM·h and the Liver weights (NASH-like pathology) was “close to normal mice control values”. The “fibrosis formation (Sirius Red staining)” value (NASH-like pathology) was “trend for reduction”, the 8-hour survival [4] was 83% and the “PHA-induced generation of IL-6” value ([5]; 10 microM) was “partial inhibition”. For the same molecule, the “PHA-induced generation of TNF-alpha, IL-1 beta, IL-2, IL-4, IL-5, IL-10 and IFN-gamma” value ([5]; 10 microM) was “no significant inhibitory effect”, the “LPS- and PHA-stimulated whole blood generation of chemokines IL-8, GRO alpha, MCP-1” value [5] was “dose-dependently suppress” and the bioavailability (in vivo [6]) was ~1%. The half-life (in vivo [7]) was ~672 h, the “Biodistribution in organs following PO administration” value ([8]; instant-release tablet) was “favored the liver” and the “exposure to the pancreas and kidney, PO versus IV administration” value ([8]; instant-release tablet PO vs IV, normalized liver concentrations) was “significantly lower exposure”.

From patent publication US9375411B2, “Uses and methods for the treatment of liver diseases or conditions” (Verlyx Pharma Inc., priority 2012, dated 2016)
